According to ChEMBL document CHEMBL1128810, “Glutamine-derived aldehydes for the inhibition of human rhinovirus 3C protease” (Bioorg Med Chem Lett, 1995):
Where a SMILES comes first, the peptide text is derived from it. The star is where a group is joined. Boc = CC(C)(C)OC(=O)*

Experiments:
[1] = target: T1, Human rhinovirus A protease (Human rhinovirus sp., UniProt Q4U254); test: Inhibitory activity against human rhinovirus-14 Protease 3C; parameters: species or system rhinovirus B14
T1 sequence (Q4U254 whole entry): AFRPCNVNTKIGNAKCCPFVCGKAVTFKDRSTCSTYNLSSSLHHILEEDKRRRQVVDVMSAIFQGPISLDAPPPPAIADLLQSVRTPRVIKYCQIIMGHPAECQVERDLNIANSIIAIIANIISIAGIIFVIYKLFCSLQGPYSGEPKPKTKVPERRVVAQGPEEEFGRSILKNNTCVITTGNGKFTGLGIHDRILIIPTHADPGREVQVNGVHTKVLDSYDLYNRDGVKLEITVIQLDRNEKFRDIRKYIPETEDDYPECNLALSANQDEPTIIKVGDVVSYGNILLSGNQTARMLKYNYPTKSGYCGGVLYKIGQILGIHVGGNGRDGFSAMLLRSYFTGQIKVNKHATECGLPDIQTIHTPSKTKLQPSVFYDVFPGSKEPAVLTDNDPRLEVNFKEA

[2] = test system: Nucleic Acid; test: In vitro ability to selectively inhibit the translation of rhinoviral RNA in translation assay; assay type: functional; details: Human rhinovirus sp.
[3] = test system: rhinovirus B14; test: Inhibitory activity against human rhinovirus-14 in cell culture; assay type: functional; details: Rhinovirus B; read-out: ED50 (the source's name)
[4] = test system: Nucleic Acid; test: In vitro ability to selectively inhibit the translation of rhinoviral RNA in translation assay; Toxic; assay type: functional; details: Human rhinovirus sp.

| SMILES | IC50 [1] [µM] | Activity [2] [µM] | EC50 [3] [µM] | Activity [4] |
| --- | --- | --- | --- | --- |
| CC(C)CC(=O)N[C@@H](Cc1ccccc1)C(=O)N[C@H](C=O)CCC(N)=O | > 80 | > 200 | – | – |
| CC(C)(C)OC(=O)N[C@@H](Cc1ccccc1)C(=O)N[C@H](C=O)CCC(N)=O | > 80 | – | – | – |
| CC(=O)NCC(=O)N[C@@H](Cc1ccccc1)C(=O)N[C@H](C=O)CCC(N)=O (Ac-Gly-Phe-Gln-aldehyde) | 16 | – | – | – |
| CC(=O)N[C@@H](CC(C)C)C(=O)N[C@@H](Cc1ccccc1)C(=O)N[C@H](C=O)CCC(N)=O (Ac-Leu-Phe-Gln-aldehyde) | 2.7 | 170 | – | – |
| CC(C)C[C@H](NC(=O)OC(C)(C)C)C(=O)N[C@@H](Cc1ccccc1)C(=O)N[C@H](C=O)CCC(N)=O (Boc-Leu-Phe-Gln-aldehyde) | > 80 | – | – | – |
| CC(C)C[C@H](NC(=O)[C@@H](NC(=O)OC(C)(C)C)C(C)C)C(=O)N[C@@H](Cc1ccccc1)C(=O)NCC=O (Boc-VLFG-aldehyde) | 10 | 180 | – | – |
| CC(C)C[C@H](NC(=O)[C@@H](NC(=O)OC(C)(C)C)C(C)C)C(=O)N[C@@H](Cc1ccccc1)C(=O)N[C@H](C=O)CCC(N)=O (Boc-VLFQ-aldehyde) | 0.6 | 10 | 500 | – |
| CC(C)C[C@H](N)C(=O)N[C@@H](Cc1ccccc1)C(=O)N[C@H](C=O)CCC(N)=O (H-Leu-Phe-Gln-aldehyde) | 1 | – | – | Toxic |
